Data taken from patent publication US11376308B2, “Use of FKBP-L polypeptides and nucleic acids for the treatment of obesity” (The Queen's University of Belfast, priority 2016, dated 2022).
“Also recorded” adds a separate entry of the source.

Legend:
SIRT1 = SIRT1 protein levels following ALM201 treatment (western blot); type: cell-based; settings: FIG. 6D
Method: For assessing protein levels: Cell lysates were prepared in RIPA buffer from MDA-MB-231, A3, MCF-7 and D2 cells and subjected to Western Blotting. The membrane was then probed with a 1:1000 dilution of rabbit FKBP-L IgG polyclonal primary antibody (Proteintech UK, cat: 10060-1-AP), 1:1000 rabbit SIRT1 IgG monoclonal primary antibody (Abcam, UK cat: ab32441) in 3% blocking solution overnight on a rocker at 4° C. The membrane was washed with PBS-Tween and then PBS for 5 min each, and was probed for an hour with a 1:5000 dilution of ECL anti rabbit IgG HRP linked whole secondary antibody (GE Healthcare UK Ltd.) Membranes were washed and developed as in section 2.2.2.11.3. Membranes were then stripped with Restore™ Western Blot Stripping Buffer (Thermo Scientific) for 10 min, washed, re-probed with rabbit GAPDH primary antibody (Sigma-Aldrich), and a 1:5000 dilution of ECL anti rabbit IgG HRP linked whole secondary antibody (GE Healthcare UK Ltd.) and developed as above. SIRT1 was identified as a band around 110 kDa, FKBP-L at 42 kDa.

IL-8 = experiment: Ray Biotech cytokine array on spent medium of MDA231 cells, validated by ELISA: IL-8; type: cell-based; settings: spent medium of MDA231 cells after exposure to ALM201
Description: (§1) FIGS. 7A and 7B illustrate the level of secretion of leptin, IL8 and TIMP Secretion after treatment with FKBP-L's therapeutic peptide, ALM201—A Ray Biotech cytokine array was used to measure cytokines in the spent medium of MDA231 cells after exposure to ALM201. Blots were then quantitated by densitometric analysis using Ray Biotech software.
(§2) A Ray Biotech cytokine array was used to measure cytokines in the spent medium of MDA231 cells after exposure to ALM201. Blots were then quantitated by densitometric analysis using Ray Biotech software. IL8 and TIMP1 levels were then validated by ELISA in two or three independent repeats. A reduction in these cytokines would reduce the obesity phenotype.

TIMP1 = experiment: Ray Biotech cytokine array on spent medium of MDA231 cells, validated by ELISA: TIMP1; type: cell-based; settings: spent medium of MDA231 cells after exposure to ALM201
Description: as §1, §2

[1] = Oral Glucose Tolerance Test (OGTT) in high fat diet fed mice given ALM201; type: in vivo
Method: An OGTT was performed by fasting the mice for 4 h, taking baseline blood glucose, administering 40% D-glucose, and recording two further blood glucose readings at 30 and 60 min.
(§3) For the high fat diet study, 40 age and sex matched mice were chosen with an age range of 6-10 weeks at the experimental start date. Mice were randomised into four groups: PBS Fkbpl^+/−, PBS Fkbpl^+/+, ALM201 Fkbpl^+/− and ALM201 Fkbpl^+/+. Power calculations were utilised to predict the number of mice needed to show statistical significance. Taking group 1 mean weight to be 25 g and group 2 mean weight to be 45 g, with a standard deviation of 13 gives a sample size of eight mice per group when powered to 0.8, with α=0.05. 10 mice per treatment group were used. All mice were weighed at experimental start date, biweekly for the first three weeks to ensure health, and weekly thereafter. Mice were solely fed a high fat diet comprising 60% fat (Cat no. F3282, Dates and, USA). Food provided was weighed biweekly for three weeks, then weekly, to ensure equal food provisions between boxes, with an allowance of 5 g per mouse per day assumed. ALM201 was reconstituted in PBS, stored at −20° C., and injected subcutaneously at a dose of 0.3 mg/kg, 5 days per week.

[2] = High fat diet weight gain study in Fkbpl+/- and Fkbpl+/+ mice, ALM201 vs PBS; type: in vivo; settings: ALM201 0.3 mg/kg subcutaneously 5 days per week
Description: as §3

leptin = experiment: Ray Biotech cytokine array on spent medium of MDA231 cells: leptin; type: cell-based; settings: spent medium of MDA231 cells after exposure to ALM201
Description: as §1, §2

NFkB = experiment: LPS-induced NFkB phosphorylation in THP-1 monocytes (western blot); type: cell-based; settings: 100 ng/ml LPS, lysates 6 hour after treatment
Method: FIG. 12 illustrates the FKBP-L peptide, AD-01 (SEQ ID NO: 10), abrogates LPS-induced activation of NFkB in THP-1 monocytes—Cells were stimulated with 100 ng of LPS which results in activation of NFkB phosphorylation.
(§4) THP1 cells were treated with 100 ng/ml LPS and cell lysates harvested and subjected to western blotting as described in Example 4, using primary antibody against pSER36 NFkB (at a 1:1000 dilution) and a 1:5000 dilution of ECL anti rabbit IgG HRP linked whole secondary antibody (GE Healthcare UK Ltd.). To measure IL-1β levels THP1 cells were treated with 1000 ng/ml LPS±AD-01 and conditioned cell culture medium was collected 24 h later and assessed using an IL-1β ELISA.

IL-1β = experiment: LPS-induced IL-1β secretion in THP-1 monocytes (ELISA); type: cell-based; settings: 1000 ng/ml LPS, conditioned medium 24 h later
Method: FIG. 13 illustrates the FKBP-L peptide, AD-01, abrogates LPS-induced activation of IL-1β in THP-1 monocytes—Cells were stimulated with 1000 ng of LPS.
as §4

Row | Substance | SIRT1 protein levels (SIRT1) | secreted IL-8 levels (IL-8) | secreted TIMP1 levels (TIMP1) | blood glucose / glucose intolerance (OGTT) ([1]; Fkbpl+/- mice given ALM201 vs Fkbpl+/- mice given PBS, readings at 30 and 60 min after 40% glucose) | difference in blood glucose levels between Fkbpl+/- and Fkbpl+/+ mice (OGTT) ([1]; both genotypes administered ALM201) | weight gain ([2]; Fkbpl+/- mice, 0.3 mg/kg) | weight gain ([2]; wild-type (Fkbpl+/+) mice) | secreted leptin levels (leptin) | LPS-induced activation of NFkB (phosphorylation) (NFkB) | LPS-induced IL-1β secretion (IL-1β)
1 | NH2-IRQQPRDPPTETLELEVSPDPAS-OH (H-IRQQPRDPPTETLELEVSPDPAS-OH) [ALM201] | increased SIRT1 levels | reduce | reduce | significantly reduced; also recorded: significantly lower blood glucose readings | no significant difference | significantly reduced; also recorded: normalises the mouse weight gain; also recorded: reduces and normalises weight gain | partially prevented weight gain | reduce |  | 
2 | NH2-QIRQQPRDPPTETLELEVSPDPAS-OH (H-QIRQQPRDPPTETLELEVSPDPAS-OH) [AD-01] |  |  |  |  |  |  |  |  | inhibit; also recorded: abrogated that increase | dramatic reduction; also recorded: significantly abrogated
